Article PMC3774728, “Identification of the Plant Compound Geraniin as a Novel Hsp90 Inhibitor” (PLoS ONE, 2013)

Assays:
recombinant Hsp90α = biological target: T1, recombinant Hsp90α (Homo sapiens, UniProt P07900); assay: Limited proteolysis-mass spectrometry of Hsp90α/geraniin complex; settings: trypsin or chymotrypsin, 5:1 molar excess of geraniin, 37°C
T1 construct: purchased Assay Designs (Ann Arbor, MI, USA)
Protocol: Limited proteolysis experiments were performed on recombinant Hsp90α at 37°C, PBS 0.1% DMSO, using trypsin or chymotrypsin as proteolytic agents; 30 µL of a 3 µM Hsp90α solution were used for each experiment. Binary complex Hsp90α/geraniin was formed by incubating the protein with a 5∶1 molar excess of geraniin at 37°C for 15 min prior to proteolytic enzyme addition. Both Hsp90 and Hsp90/geraniin complex were digested using a 1∶100 (w/w) enzyme to substrate ratio. The extent of the reactions was monitored on a time−course basis by sampling the incubation mixture after 5, 15, and 30 min of digestion. Samples were analyzed by MALDITOF/MS using a MALDI micro MX (Waters). Mass data were elaborated using the Masslynx software (Waters). Preferential hydrolysis sites on Hsp90α under different conditions were identified on the basis of the fragments released during enzymatic digestion.
In an effort to identify the Hsp90α region involved in geraniin binding, a limited proteolysis−mass spectrometry−based strategy was used for the structural analysis of the Hsp90α/geraniin complex. This approach is based on the evidence that exposed, weakly structured, and flexible regions of a protein can be recognized by a proteolytic enzyme, [30]. […]

[1] = system: PBMC (human Peripheral Blood Mononuclear Cells); assay: Cytotoxicity in PHA-stimulated proliferating PBMC; format: cell-based; settings: 24 h, trypan blue, only at high doses
Protocol: To ensure logarithmic growth, cells were subcultured every two days. As control cells, human peripheral blood mononuclear cells (PBMC) were isolated from buffy coats of healthy donors (kindly provided by the Blood Center of the Hospital of Battipaglia, Salerno, Italy) by using standard Ficoll−Hypaque gradients. […] Proliferation of PBMC was induced by phytohemagglutinin (PHA) (10 µg mL^−1). […] Stock solutions of geraniin (50 mM in DMSO) and 17-AAG (10 mM in DMSO) were stored a −20°C in the dark and diluted just before addition to the sterile culture medium. In all the experiments, the final concentration of DMSO was 0.10% (v/v).
The number of viable cells was determined by using a [3–4,5-dimethyldiazol-2-yl]-2,5-diphenyl tetrazolium bromide (MTT, Sigma-Aldrich) conversion assay, according to the method described by Mosmann. Briefly, following the treatment, 25 µL of MTT (5 mg/mL in PBS) was added and the cells were incubated for additional 3 h at 37°C. Thereafter, cells were lysed and suspended with 100 µL of buffer containing 50% (v/v) N,N-dimethylformamide, 20% SDS (pH 4.5). The absorbance was measured with a microplate reader (Titertek multiskan MCC7340, LabSystems, Vienna, VA, USA) equipped with a 620 nm filter. Cell population growth inhibition was tested by cytometric counting (trypan blu exclusion).

Hsp90α ATPase activity = biological target: T2, Hsp90α ATPase activity (Homo sapiens, UniProt P07900); assay: ATP hydrolysis inhibition (ADP Hunter Plus assay); format: biochemical; settings: 40 nM Hsp90α, 100 µM ATP, 60 min, 40°C
T2 construct: purchased Assay Designs (Ann Arbor, MI, USA)
Protocol: The assay was performed using the Discover RX ADP HunterTM Plus Assay kit, following the manufacturer’s instructions. ATPase reactions were carried out for 60 min at 40°C temperature in 100 mM Tris pH 7.4, 100 µM ATP and 40 nM Hsp90α in the presence of different concentrations of geraniin or 17-AAG. ADP generation was measured using a Perkin Elmer LS 55 fluorimeter (540 nm excitation and 620 nm emission). Fluorescence intensity values measured for Hsp90α without any compound were set at 100% of enzyme activity. The background reaction rate was measured in a reaction lacking enzyme or substrate and subtracted from the experimental rates.
Figure 3 Inhibition of Hsp90α activity. ATPase activity of the chaperone was evaluated in the presence of different concentrations of geraniin, 17-AAG and HA (A). Data are reported as the residual ATPase activity (%) compared to that observed for an untreated sample. Data are the mean of three independent experiments performed in triplicate and were analyzed by t test (HA vs testing compounds): The error bar represents the standard deviation of nine measurements, while * indicates significance at P<0.01. Aggregation kinetics of citrate synthase (CS) at 43°C determined by light scattering (B). […]

O=C1O[C@H]2[C@@H]3OC(=O)c4cc(O)c(O)c(O)c4-c4c(cc(O)c(O)c4O)C(=O)OC[C@H]2O[C@@H](OC(=O)c2cc(O)c(O)c(O)c2)[C@@H]3OC(=O)c2cc(O)c(O)c3c2[C@@H]2C1=CC(=O)[C@](O)(O3)C2(O)O [Compound 54, geraniin]
Hsp90α region involved in binding (recombinant Hsp90α): overall protection of the N−terminal region from proteolysis
cytotoxic effects in control PBMC [1]: Minimal cytotoxic effects
Hsp90α ATPase activity inhibition (Hsp90α ATPase activity): inhibit Hsp90α ATPase activity in a dose−dependent manner
